Laboratory results: ChEMBL document CHEMBL1138584, “(3,3-Difluoro-pyrrolidin-1-yl)-[(2S,4S)-(4-(4-pyrimidin-2-yl-piperazin-1-yl)-pyrrolidin-2-yl]-methanone: a potent, selective, orally active dipeptidyl peptidase IV inhibitor” (Bioorg Med Chem Lett, 2009)
pIC50: −log10 of the molar value. ≈ marks a conversion by molar mass, not a printed value.

Experiments:
hERG (KCNH2) = hERG (KCNH2) (Homo sapiens, UniProt Q12809); assay: Displacement of [3H]dofetilide from human ERG expressed in HEK293 cells at 10 uM
Dipeptidyl peptidase 8 = Dipeptidyl peptidase 8 (Homo sapiens, UniProt Q6V1X1); assay: Inhibition of human recombinant DPP8
Dipeptidyl peptidase 2 = Dipeptidyl peptidase 2 (Homo sapiens, UniProt Q9UHL4); assay: Inhibition of human recombinant DPP2
[1] = target: Voltage-gated inwardly rectifying potassium channel KCNH2 (Homo sapiens, UniProt Q12809); assay: Inhibition of human ERG by patch-clamp technique
[2] = Clearance in Sprague-Dawley rat plasma at 1 mg/kg, iv and 5 mg/kg, po
[3] = Volume of distribution at steady state in Sprague-Dawley rat at 1 mg/kg, iv and 5 mg/kg, po; conditions: in vivo
[4] = Half life in Sprague-Dawley rat at 1 mg/kg, iv and 5 mg/kg, po; conditions: in vivo
[5] = Bioavailability in Sprague-Dawley rat at 1 mg/kg, iv and 5 mg/kg, po; conditions: in vivo
in vivo [6] = conditions: Sprague-Dawley, rat, plasma, po, 5 mg/kg
Description: AUC in Sprague-Dawley rat at 5 mg/kg, po

in vivo [7] = conditions: Sprague-Dawley, rat, po, 5 mg/kg
Description: Cmax in Sprague-Dawley rat at 5 mg/kg, po

[8] = Apparent permeability from basolateral to apical side in MDCK cells; conditions: dog
[9] = Apparent permeability from apical to basolateral side in MDCK cells; conditions: dog
[10] = Fraction unbound in monkey; type: ADME, Macaca mulatta; conditions: rhesus monkey
[11] = Fraction unbound in human; type: ADME
[12] = Tmax in human at 0.3 to 300 mg; type: ADME, organism-based; conditions: in vivo
[13] = Terminal half life in human at 0.3 to 300 mg; type: ADME, organism-based; conditions: in vivo, read-out: beta t1/2 (converted)
[14] = Cmax in cynomolgus monkey at 1 mg/kg, po; type: ADME, organism-based, Macaca fascicularis; design: dose 1 mg/kg, route oral; conditions: in vivo
[15] = Clearance in dog plasma at 1 mg/kg, iv and 1 mg/kg, po; type: ADME, organism-based, Canis lupus familiaris
[16] = Volume of distribution at steady state in dog at 1 mg/kg, iv and 1 mg/kg, po; type: ADME, organism-based, Canis lupus familiaris; conditions: in vivo, read-out: Vdss
[17] = Half life in dog at 1 mg/kg, iv and 1 mg/kg, po; type: ADME, organism-based, Canis lupus familiaris; conditions: in vivo
[18] = Bioavailability in dog at 1 mg/kg, iv and 1 mg/kg, po; type: ADME, organism-based, Canis lupus familiaris; conditions: in vivo
[19] = AUC in dog at 1 mg/kg, po; type: ADME, organism-based, Canis lupus familiaris; design: dose 1 mg/kg, route oral; conditions: plasma
[20] = Cmax in dog at 1 mg/kg, po; type: ADME, organism-based, Canis lupus familiaris; design: dose 1 mg/kg, route oral; conditions: in vivo
Dipeptidyl peptidase 3 = target: T1, Dipeptidyl peptidase 3 (Homo sapiens, UniProt Q9NY33); assay: Inhibition of DPP3 in human erythrocytes; type: cell-based
T1 sequence (Q9NY33 whole entry): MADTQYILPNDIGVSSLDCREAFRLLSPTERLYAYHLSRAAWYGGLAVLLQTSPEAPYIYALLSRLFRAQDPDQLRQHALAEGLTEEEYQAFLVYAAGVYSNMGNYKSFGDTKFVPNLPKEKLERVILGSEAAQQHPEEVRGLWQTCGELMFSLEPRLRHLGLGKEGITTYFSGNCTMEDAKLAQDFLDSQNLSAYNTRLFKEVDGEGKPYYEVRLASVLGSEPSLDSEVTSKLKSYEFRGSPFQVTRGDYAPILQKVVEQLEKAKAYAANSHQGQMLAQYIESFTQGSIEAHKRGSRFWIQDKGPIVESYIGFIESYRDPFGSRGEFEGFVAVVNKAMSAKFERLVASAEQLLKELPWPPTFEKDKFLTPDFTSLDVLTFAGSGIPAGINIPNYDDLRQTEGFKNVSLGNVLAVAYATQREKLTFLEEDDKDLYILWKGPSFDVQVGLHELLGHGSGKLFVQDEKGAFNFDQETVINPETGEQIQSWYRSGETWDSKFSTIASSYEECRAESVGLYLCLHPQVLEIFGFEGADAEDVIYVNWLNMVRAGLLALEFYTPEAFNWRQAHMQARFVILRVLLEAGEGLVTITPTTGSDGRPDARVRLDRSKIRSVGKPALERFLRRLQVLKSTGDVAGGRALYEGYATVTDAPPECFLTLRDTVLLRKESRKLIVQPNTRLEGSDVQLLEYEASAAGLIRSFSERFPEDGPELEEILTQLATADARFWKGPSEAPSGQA

Prolyl endopeptidase = target: T2, Prolyl endopeptidase (Homo sapiens, UniProt P48147); assay: Inhibition of POP
T2 sequence (P48147 whole entry): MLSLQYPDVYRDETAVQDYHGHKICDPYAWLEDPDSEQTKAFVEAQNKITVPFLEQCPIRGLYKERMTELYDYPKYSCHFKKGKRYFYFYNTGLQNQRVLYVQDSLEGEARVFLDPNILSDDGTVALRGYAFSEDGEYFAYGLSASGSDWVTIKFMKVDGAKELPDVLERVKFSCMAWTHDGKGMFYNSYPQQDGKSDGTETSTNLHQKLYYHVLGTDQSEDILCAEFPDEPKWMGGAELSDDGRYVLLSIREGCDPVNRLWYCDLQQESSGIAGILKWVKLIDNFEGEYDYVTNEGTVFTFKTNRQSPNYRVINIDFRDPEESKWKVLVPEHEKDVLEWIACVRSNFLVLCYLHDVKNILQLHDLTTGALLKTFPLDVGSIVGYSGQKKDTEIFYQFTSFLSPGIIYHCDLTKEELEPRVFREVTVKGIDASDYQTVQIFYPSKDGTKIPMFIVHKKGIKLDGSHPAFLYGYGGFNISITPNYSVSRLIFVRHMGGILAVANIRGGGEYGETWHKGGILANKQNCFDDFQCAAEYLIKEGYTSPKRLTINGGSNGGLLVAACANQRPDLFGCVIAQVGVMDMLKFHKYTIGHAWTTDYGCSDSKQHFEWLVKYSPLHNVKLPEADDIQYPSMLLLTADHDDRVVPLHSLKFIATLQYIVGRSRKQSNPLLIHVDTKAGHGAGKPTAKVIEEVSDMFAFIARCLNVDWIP

Cytochrome P450 1A2 = target: T3, Cytochrome P450 1A2 (Homo sapiens, UniProt P05177); assay: Inhibition of CYP1A2; type: ADME
T3 sequence (P05177 whole entry): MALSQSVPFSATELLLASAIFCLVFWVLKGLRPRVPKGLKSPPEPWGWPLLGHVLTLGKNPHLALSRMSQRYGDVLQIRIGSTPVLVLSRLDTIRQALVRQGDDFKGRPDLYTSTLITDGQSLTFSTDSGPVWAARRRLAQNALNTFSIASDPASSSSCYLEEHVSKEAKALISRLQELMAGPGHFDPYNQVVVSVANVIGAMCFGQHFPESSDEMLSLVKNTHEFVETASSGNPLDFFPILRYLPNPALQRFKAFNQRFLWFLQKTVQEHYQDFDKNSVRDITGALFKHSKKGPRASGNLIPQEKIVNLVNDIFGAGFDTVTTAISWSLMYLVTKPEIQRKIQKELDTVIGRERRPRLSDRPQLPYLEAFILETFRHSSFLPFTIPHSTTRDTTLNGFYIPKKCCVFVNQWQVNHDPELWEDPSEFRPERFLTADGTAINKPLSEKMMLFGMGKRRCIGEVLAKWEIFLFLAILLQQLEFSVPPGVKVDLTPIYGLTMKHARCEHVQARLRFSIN

[21] = Clearance in cynomolgus monkey plasma at 1 mg/kg, iv and 1 mg/kg, po; type: ADME, organism-based, Macaca fascicularis
[22] = Volume of distribution at steady state in cynomolgus monkey at 1 mg/kg, iv and 1 mg/kg, po; type: ADME, organism-based, Macaca fascicularis; conditions: in vivo, read-out: Vdss
[23] = Half life in cynomolgus monkey at 1 mg/kg, iv and 1 mg/kg, po; type: ADME, organism-based, Macaca fascicularis; conditions: in vivo
[24] = Bioavailability in cynomolgus monkey at 1 mg/kg, iv and 1 mg/kg, po; type: ADME, organism-based, Macaca fascicularis; conditions: in vivo
Cytochrome P450 2C9 = Cytochrome P450 2C9 (Homo sapiens, UniProt P11712); assay: Inhibition of CYP2C9; type: ADME
Cytochrome P450 2C19 = Cytochrome P450 2C19 (Homo sapiens, UniProt P33261); assay: Inhibition of CYP2C19; type: ADME
Cytochrome P450 2D6 = Cytochrome P450 2D6 (Homo sapiens, UniProt P10635); assay: Inhibition of CYP2D6; type: ADME
Cytochrome P450 3A4 = Cytochrome P450 3A4 (Homo sapiens, UniProt P08684); assay: Inhibition of CYP3A4; type: ADME
Rattus norvegicus = organism: Rattus norvegicus; assay: Ex vivo inhibition of DPP4 in Sprague-Dawley rat; type: functional, organism-based
[25] = Fraction unbound in rat; type: ADME
[26] = Fraction unbound in dog; type: ADME, Canis lupus familiaris
[27] = AUC in cynomolgus monkey at 1 mg/kg, po; type: ADME, organism-based, Macaca fascicularis; design: dose 1 mg/kg, route oral; conditions: plasma
[28] = HEK293 cells that express human ERG, probe [3H]dofetilide

Voltage-gated inwardly rectifying potassium channel KCNH2, sequence (Q12809 whole entry): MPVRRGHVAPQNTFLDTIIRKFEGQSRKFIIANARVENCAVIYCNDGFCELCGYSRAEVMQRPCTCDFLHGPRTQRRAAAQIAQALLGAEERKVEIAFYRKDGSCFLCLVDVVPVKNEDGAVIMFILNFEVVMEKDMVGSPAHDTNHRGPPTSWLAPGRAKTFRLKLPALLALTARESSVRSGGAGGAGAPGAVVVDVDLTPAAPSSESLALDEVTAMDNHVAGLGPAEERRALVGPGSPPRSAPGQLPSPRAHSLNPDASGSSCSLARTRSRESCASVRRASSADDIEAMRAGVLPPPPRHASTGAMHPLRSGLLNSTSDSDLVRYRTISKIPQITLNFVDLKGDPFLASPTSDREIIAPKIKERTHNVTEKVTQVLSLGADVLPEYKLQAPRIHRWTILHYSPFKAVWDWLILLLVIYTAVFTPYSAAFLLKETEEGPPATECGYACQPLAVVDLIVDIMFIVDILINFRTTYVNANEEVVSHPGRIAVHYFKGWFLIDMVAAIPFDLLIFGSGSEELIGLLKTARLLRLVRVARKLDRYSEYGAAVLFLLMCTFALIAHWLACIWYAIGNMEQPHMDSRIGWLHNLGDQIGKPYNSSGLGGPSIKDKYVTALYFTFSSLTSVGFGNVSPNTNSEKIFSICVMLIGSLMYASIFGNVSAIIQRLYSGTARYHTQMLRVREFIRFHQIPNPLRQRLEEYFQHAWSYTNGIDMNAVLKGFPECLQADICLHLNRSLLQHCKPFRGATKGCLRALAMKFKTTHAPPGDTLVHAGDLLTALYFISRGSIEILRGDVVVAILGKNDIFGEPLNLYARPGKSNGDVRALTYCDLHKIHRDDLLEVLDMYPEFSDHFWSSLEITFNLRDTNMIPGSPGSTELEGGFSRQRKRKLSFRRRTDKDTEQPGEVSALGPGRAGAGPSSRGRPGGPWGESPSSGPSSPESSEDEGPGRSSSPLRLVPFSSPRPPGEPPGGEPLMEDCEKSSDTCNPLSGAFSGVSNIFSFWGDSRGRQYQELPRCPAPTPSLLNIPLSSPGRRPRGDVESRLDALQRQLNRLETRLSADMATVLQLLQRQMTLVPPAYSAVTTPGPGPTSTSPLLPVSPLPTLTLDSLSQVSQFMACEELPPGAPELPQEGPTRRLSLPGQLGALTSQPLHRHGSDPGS
hERG (KCNH2), sequence (Q12809 whole entry): as above
Dipeptidyl peptidase 8, sequence (Q6V1X1 whole entry): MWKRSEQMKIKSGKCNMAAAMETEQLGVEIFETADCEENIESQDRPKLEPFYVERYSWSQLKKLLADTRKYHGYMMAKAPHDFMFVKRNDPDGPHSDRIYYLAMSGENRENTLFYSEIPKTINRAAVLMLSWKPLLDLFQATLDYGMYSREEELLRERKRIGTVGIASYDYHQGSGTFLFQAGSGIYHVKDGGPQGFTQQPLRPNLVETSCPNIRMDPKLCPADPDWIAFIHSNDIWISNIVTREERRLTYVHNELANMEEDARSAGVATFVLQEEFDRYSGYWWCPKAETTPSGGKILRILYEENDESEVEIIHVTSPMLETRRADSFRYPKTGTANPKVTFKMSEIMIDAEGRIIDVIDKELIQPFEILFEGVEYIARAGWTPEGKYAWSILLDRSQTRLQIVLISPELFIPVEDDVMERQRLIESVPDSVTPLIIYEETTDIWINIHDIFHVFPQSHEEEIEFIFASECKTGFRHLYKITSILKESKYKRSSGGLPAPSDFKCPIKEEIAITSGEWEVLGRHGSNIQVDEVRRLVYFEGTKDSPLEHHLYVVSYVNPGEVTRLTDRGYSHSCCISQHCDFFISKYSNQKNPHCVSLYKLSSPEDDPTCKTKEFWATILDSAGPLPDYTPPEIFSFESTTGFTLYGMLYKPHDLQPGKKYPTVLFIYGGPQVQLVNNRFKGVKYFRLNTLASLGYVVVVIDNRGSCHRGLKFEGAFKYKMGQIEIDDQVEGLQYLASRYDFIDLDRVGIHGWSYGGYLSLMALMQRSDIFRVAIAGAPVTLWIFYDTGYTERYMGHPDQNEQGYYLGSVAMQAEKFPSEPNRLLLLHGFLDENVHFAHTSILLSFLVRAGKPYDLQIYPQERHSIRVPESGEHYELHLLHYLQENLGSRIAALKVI
Cytochrome P450 2C19, sequence (P33261 whole entry): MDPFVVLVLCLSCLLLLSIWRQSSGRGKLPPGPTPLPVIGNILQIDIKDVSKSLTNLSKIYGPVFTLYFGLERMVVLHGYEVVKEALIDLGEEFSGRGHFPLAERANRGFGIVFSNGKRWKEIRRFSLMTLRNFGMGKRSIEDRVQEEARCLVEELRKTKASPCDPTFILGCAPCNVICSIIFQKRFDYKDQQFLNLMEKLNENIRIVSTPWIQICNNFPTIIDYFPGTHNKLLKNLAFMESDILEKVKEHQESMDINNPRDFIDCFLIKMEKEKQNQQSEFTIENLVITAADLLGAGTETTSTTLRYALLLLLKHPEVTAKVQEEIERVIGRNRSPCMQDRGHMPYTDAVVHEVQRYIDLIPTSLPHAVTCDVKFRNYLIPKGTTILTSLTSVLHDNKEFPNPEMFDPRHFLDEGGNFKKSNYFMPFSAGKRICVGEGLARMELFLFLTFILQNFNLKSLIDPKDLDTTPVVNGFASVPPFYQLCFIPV
Cytochrome P450 3A4, sequence (P08684 whole entry): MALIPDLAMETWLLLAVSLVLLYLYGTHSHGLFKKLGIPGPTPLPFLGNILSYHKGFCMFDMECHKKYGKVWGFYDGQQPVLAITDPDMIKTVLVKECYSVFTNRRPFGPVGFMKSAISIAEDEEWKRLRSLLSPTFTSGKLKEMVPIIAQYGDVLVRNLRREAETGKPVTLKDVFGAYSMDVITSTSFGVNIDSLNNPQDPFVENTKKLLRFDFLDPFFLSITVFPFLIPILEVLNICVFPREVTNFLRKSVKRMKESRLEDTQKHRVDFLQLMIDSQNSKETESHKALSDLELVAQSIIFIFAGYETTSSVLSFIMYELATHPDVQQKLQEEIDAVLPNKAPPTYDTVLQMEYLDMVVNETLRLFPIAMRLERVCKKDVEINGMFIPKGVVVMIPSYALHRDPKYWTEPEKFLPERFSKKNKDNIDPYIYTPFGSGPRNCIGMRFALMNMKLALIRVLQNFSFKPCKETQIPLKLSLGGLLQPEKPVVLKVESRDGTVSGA
Cytochrome P450 2C9, sequence (P11712 whole entry): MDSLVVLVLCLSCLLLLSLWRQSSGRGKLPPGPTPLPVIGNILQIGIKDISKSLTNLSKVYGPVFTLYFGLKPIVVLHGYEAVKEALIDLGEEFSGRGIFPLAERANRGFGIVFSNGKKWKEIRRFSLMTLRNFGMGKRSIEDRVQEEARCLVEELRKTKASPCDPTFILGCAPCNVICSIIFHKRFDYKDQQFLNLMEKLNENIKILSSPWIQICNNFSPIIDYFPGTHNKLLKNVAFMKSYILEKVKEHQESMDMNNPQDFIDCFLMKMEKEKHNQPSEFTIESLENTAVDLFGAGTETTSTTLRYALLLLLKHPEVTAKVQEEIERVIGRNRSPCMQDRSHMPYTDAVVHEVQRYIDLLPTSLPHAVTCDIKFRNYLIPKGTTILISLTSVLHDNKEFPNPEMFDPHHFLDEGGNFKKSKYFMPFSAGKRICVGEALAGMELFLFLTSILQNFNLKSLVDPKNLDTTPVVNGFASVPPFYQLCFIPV

O=C([C@@H]1C[C@H](N2CCN(c3ncccn3)CC2)CN1)N1C[C@@H](F)[C@H](F)C1
inhibition at 10 µM (hERG (KCNH2); hek293): -1.6%

O=C([C@@H]1C[C@H](N2CCN(c3ncccn3)CC2)CN1)N1CC(F)C1
pIC50 (Dipeptidyl peptidase 8): < 4.52
pIC50 (Dipeptidyl peptidase 2): < 4.52

O=C([C@@H]1C[C@H](N2CCN(c3ncccn3)CC2)CN1)N1C[C@@H](F)[C@@H](F)C1
inhibition at 10 µM (hERG (KCNH2); hek293): 7.2%
pIC50 [1]: 4.27
clearance [2]: 27 mL/min/kg
Vd [3]: 1.9 L/kg
half-life [4]: 2.3 h
bioavailability [5]: 93%
AUC (in vivo [6]): 3950 ng·h/mL
Cmax (in vivo [7]): 1820 ng/mL

O=C([C@@H]1C[C@H](N2CCN(c3noc4ccccc34)CC2)CN1)N1CCC(F)(F)C1
inhibition at 10 µM (hERG (KCNH2); [28]): 26.7%
Papp B→A [8]: 11.2 ×10⁻⁶ cm/s
Papp A→B [9]: 18.6 ×10⁻⁶ cm/s

O=C([C@@H]1C[C@H](N2CCN(c3nc4cnccc4o3)CC2)CN1)N1CCC(F)(F)C1
inhibition at 10 µM (hERG (KCNH2); [28]): 8.1%

O=C([C@@H]1C[C@H](N2CCN(c3nc4cccnc4o3)CC2)CN1)N1CCC(F)(F)C1
inhibition at 10 µM (hERG (KCNH2); [28]): 7.4%

N#Cc1cccnc1N1CCN([C@@H]2CN[C@H](C(=O)N3CCC(F)(F)C3)C2)CC1
inhibition at 10 µM (hERG (KCNH2); [28]): -7.3%
Papp B→A [8]: 13.5 ×10⁻⁶ cm/s
Papp A→B [9]: 10.4 ×10⁻⁶ cm/s
pIC50 [1]: < 5.00
clearance [2]: 61 mL/min/kg
Vd [3]: 1.8 L/kg
half-life [4]: 1.5 h
bioavailability [5]: 20%
AUC (in vivo [6]): 276 ng·h/mL
Cmax (in vivo [7]): 237 ng/mL

O=C([C@@H]1C[C@H](N2CCN(c3ncccn3)CC2)CN1)N1CCC(F)(F)C1 [GOSOGLIPTIN]
fraction unbound [10]: 0.8
fraction unbound [11]: 0.8
Tmax [12]: 0.5 h
half-life [13]: 15.1 h
Cmax [14]: 517 ng/mL
clearance [15]: 3.7 mL/min/kg
Vd [16]: 0.7 L/kg
half-life [17]: 7.6 h
bioavailability [18]: 95%
AUC [19]: 7160 ng·h/mL
Cmax [20]: 1530 ng/mL
pIC50 (Dipeptidyl peptidase 3): < 4.52
pIC50 (Prolyl endopeptidase): < 4.52
pIC50 (Cytochrome P450 1A2): < 4.52
inhibition at 10 µM (hERG (KCNH2); hek293): 14.9%
pIC50 [1]: 3.90
clearance [2]: 38 mL/min/kg
Vd [3]: 1.9 L/kg
half-life [4]: 2.5 h
bioavailability [5]: 109%
clearance [21]: 7.6 mL/min/kg
Vd [22]: 1 L/kg
half-life [23]: 7.6 h
bioavailability [24]: 71%
pIC50 (Cytochrome P450 2C9): < 4.52
pIC50 (Cytochrome P450 2C19): < 4.52
pIC50 (Cytochrome P450 2D6): < 4.52
pIC50 (Cytochrome P450 3A4): < 4.52
Emax (Rattus norvegicus): 98%
IC50 (Rattus norvegicus): 1.3 ng/mL (≈ 3.55 nM)
fraction unbound [25]: 0.8
fraction unbound [26]: 0.8
AUC [27]: 843 ng·h/mL
AUC (in vivo [6]): 2400 ng·h/mL
Cmax (in vivo [7]): 1410 ng/mL
